Assay results as given in patent publication US20060211724A1, “Hiv integrase inhibitors” (priority 2003, published 2006).

What was measured:
[1] = target: T1, Recombinant His-tagged HIV-1 integrase (Human immunodeficiency virus type 1 group M subtype B, UniProt P12497, C1427S/F1332K); experiment: Enzymatic integrase assay (oligonucleotide-based DNA strand transfer, ELISA); assay type: biochemical
T1 construct: Recombinant His-tagged HIV-1 integrase; His; made in house; host or cells: E. coli BL21(DE3)
Description: Enzymatic Integrase Assay
The activity of HIV-integrase was determined using an oligonucleotide-based assay in which the DNA strand transfer by preformed complexes of integrase and processed DNA was measured by means of an enzyme-linked immunosorbent assay (ELISA) in microtiter plate format. Recombinant His-tagged HIV-1 integrase was produced in the E. coli strain BL21(DE3) from the plasmid pINSD.His.sol (available from NTH) after induction with isopropyl-β-D-thiogalactopyranoside (IPTG) according to described procedures (cfr. ref. Jenkins et al., “A soluble active mutant of HIV-1 integrase”, J. Biol. Chem. 271 ([…]), 7712-7718). HPLC-purified oligodeoxynucleotides were obtained from Proligo, and used for preparation of the viral DNA substrate and target DNA.
INb-1C is 5′-biotinylated, INT5 and INT6 are at the 3′-end labeled with FITC. INb-1C and IN-1NC correspond to the U5 end of the HIV-1 LTR. The DNA substrate for the integrase reactions was made by annealing INb-1C and IN-1NC. An equimolar mixture of INb-1C and IN-1NC was heated shortly at 95° C. in the presence of 100 mM NaCl and allowed to cool slowly to room temperature. In the same way, INT5 and INT6 were annealed to produce a target DNA molecule.
The integration strand transfer reactions were performed in the following way:
20 nM biotinylated DNA substrate INb-1C/IN-1NC was pre-incubated with 300 nM HIV-integrase at 37° C. for 5 min, to allow the cleavage reaction to occur. The candidate compounds and 50 nM target DNA INT5/INT6 were added to the reaction mix containing 20 mM Hepes pH 7.5, 25 mM NaCl, 5 mM MnCl2, 2 mM DTT, and 50 μg/ml BSA, and incubated for 2 h at 37° C. The reaction mix was transferred to streptavidin-coated plates (Exiqon), which were prewashed (three times) with 5×SSCT, and incubated for 1 h at room temperature to allow capture of the biotinylated viral DNA/target DNA complex. Plates were washed three times with 2×SSCT buffer, and anti-FITC POD-coupled antibody (Roche) was added and incubated for 1 h at room temperature to detect integrated FITC-labeled target DNA. After a final washing step with PBST (5 times), BM chemiluminescent POD-substrate (Roche) was added, and luminescence was read out.
The table below list the pIC50 values for those compounds tested in the enzymatic integrase assay. The pIC50 is expressed in Molar units and is the value according to the following formula: pIC50=−log IC50
wherein the IC50 value is the drug concentration at which 50% of the enzyme or viral activity is inhibited.

[2] = tested on: MT4 cells infected with HIV; experiment: Analysis of HIV integration using real-time PCR; assay type: cell-based; details: for 2LTR-circles (DNA copies) / Integration Alu-PCR (integrated DNA copies): DNA analyzed 16 h after infection, relative to control; for Conclusion (step of replication cycle inhibited): from Alu-PCR and 2LTR-circles
Description: Analysis of HIV Integration Using Real-Time PCR
Next to the detection of integrated DNA (proviral DNA), the production of 2LTR-circles formed by circularisation of unintegrated DNA was monitored. Specific inhibition of the integration of viral DNA into the genome was typically associated with accumulation of 2LTR-circles in the nucleus. MT4 cells were infected with HIV at high MOI by centrifugation for 60 min at 1200 g. After infection cells were incubated in the presence of compound in 24-well plates (10^6 c/well) for 16 h, and DNA was extracted using the QiaAmp DNA mini kit (Qiagen).
After normalization, 2LTR-circles and integrated DNA were quantified by real-time PCR using the appropriate primers and probe (cfr. reference Butler et al.). Reactions were analysed using the ABI Prism 5700 sequence detection system (Applied Biosystems).
DNA was analyzed for integration (Alu-PCR) and 2LTR-circles, 16 h after infection. DNA was also analyzed for viral cDNA synthesis, 4 h after infection.

Compound | IC50 [1] [µM] | 2LTR-circles (DNA copies) [2] | Integration Alu-PCR (integrated DNA copies) [2] | Conclusion (step of replication cycle inhibited) [2]
O=C1c2c(c(O)c3nccnc3c2O)C(=O)N1Cc1ccc2c(c1)OCO2 [Compound 1, 7-Benzo[1,3]dioxol-5-ylmethyl-5,9-dihydroxy-pyrrolo[3,4-g]quinoxaline-6,8-dione] | 0.617 | +++ (“+++” symbol indicates an increase in the amount of DNA copies > 5 in comparison with the control level) | − | Integrase
O=C1c2c(c(O)c3nccnc3c2O)C(=O)N1Cc1ccc(F)cc1 [Compound 2, 7-(4-Fluoro-benzyl)-5,9-dihydroxy-pyrrolo[3,4-g]quinoxaline-6,8-dione] | 0.417 | +++ (“+++” symbol indicates an increase in the amount of DNA copies > 5 in comparison with the control level) | − | Integrase
O=C1c2c(c(O)c3[nH]cnc3c2O)C(=O)N1Cc1ccc2c(c1)OCO2 [Compound 39, 6-Benzo[1,3]dioxol-5-ylmethyl-4,8-dihydroxy-1H-1,3,6-triaza-s-indacene-5,7-dione] | 2.04 |  |  | 
CC(c1ccccc1)N1C(=O)c2c(c(O)c3c(ncn3Cc3ccccc3)c2O)C1=O (centres unmarked) [Compound 40, 1-Benzyl-4,8-dihydroxy-6-(1-phenyl-ethyl)-1H-1,3,6-triaza-s-indacene-5,7-dione] | 1.12 |  |  | 
CC(c1ccccc1)N1C(=O)c2c(c(O)c3ccccc3c2O)C1=O (centres unmarked) [Compound 42, 4,9-Dihydroxy-2-(1-phenyl-ethyl)-benzo[f]isoindole-1,3-dione] | > 100 |  |  | 
CC(C)Oc1ccc(Cc2ccccc2)cc1C(=O)CC(=O)C(=O)O [Reference compound, reference compound] |  | +++ (“+++” symbol indicates an increase in the amount of DNA copies > 5 in comparison with the control level) | − | Integrase
